Results reported in article PMC8380825 (Journal of molecular biology, 2021).
Where no end group is shown, it is not given here.

Columns and labels:
[1] = biological target: NPR-1 mutants (Caenorhabditis elegans, UniProt Q18534, D303A/D304A/E301A); assay: cAMP reporter gene assay; assay type: cell-based, C. elegans
[2] = biological target: NPR-1 mutants (Caenorhabditis elegans, UniProt Q18534, D315A); assay: cAMP reporter gene assay; assay type: cell-based, C. elegans; conditions: NPR-1 D^7.26A mutant
NPR-1 mutants (Caenorhabditis elegans, UniProt Q18534, D315A), sequence (Q18534 whole entry D315A): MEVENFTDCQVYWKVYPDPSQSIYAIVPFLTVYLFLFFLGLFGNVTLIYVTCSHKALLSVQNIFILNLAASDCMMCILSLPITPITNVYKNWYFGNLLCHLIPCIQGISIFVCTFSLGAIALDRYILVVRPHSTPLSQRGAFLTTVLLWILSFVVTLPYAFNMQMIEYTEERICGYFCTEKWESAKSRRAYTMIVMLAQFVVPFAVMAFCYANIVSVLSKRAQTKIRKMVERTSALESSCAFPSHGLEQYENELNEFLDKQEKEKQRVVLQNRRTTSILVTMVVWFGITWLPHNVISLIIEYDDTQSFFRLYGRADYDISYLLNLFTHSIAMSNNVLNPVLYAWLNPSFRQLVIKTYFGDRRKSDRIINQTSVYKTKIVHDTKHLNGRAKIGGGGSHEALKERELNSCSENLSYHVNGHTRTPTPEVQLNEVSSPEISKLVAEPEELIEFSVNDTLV

[3] = biological target: NPR-1 mutants (Caenorhabditis elegans, UniProt Q18534, D316A); assay: cAMP reporter gene assay; assay type: cell-based, C. elegans; conditions: NPR-1 D^7.27A mutant
NPR-1 mutants (Caenorhabditis elegans, UniProt Q18534, D316A), sequence (Q18534 whole entry D316A): as the sequence (Q18534 whole entry D315A) above, with A315D, D316A counted along it

[4] = biological target: NPR-1 mutants (Caenorhabditis elegans, UniProt Q18534, E180A); assay: cAMP reporter gene assay; assay type: cell-based, C. elegans
NPR-1 mutants (Caenorhabditis elegans, UniProt Q18534, E180A), sequence (Q18534 whole entry E180A): as the sequence (Q18534 whole entry D315A) above, with E180A, A315D counted along it

[5] = biological target: NPR-1 mutants (Caenorhabditis elegans, UniProt Q18534, E180D); assay: cAMP reporter gene assay; assay type: cell-based, C. elegans
NPR-1 mutants (Caenorhabditis elegans, UniProt Q18534, E180D), sequence (Q18534 whole entry E180D): as the sequence (Q18534 whole entry D315A) above, with E180D, A315D counted along it

[6] = biological target: NPR-1 mutants (Caenorhabditis elegans, UniProt Q18534, E180Q); assay: cAMP reporter gene assay; assay type: cell-based, C. elegans
NPR-1 mutants (Caenorhabditis elegans, UniProt Q18534, E180Q), sequence (Q18534 whole entry E180Q): as the sequence (Q18534 whole entry D315A) above, with E180Q, A315D counted along it

[7] = biological target: NPR-1 mutants (Caenorhabditis elegans, UniProt Q18534, E301A); assay: cAMP reporter gene assay; assay type: cell-based, C. elegans
NPR-1 mutants (Caenorhabditis elegans, UniProt Q18534, E301A), sequence (Q18534 whole entry E301A): as the sequence (Q18534 whole entry D315A) above, with E301A, A315D counted along it

[8] = biological target: NPR-1 mutants (Caenorhabditis elegans, UniProt Q18534, E301D); assay: cAMP reporter gene assay; assay type: cell-based, C. elegans
NPR-1 mutants (Caenorhabditis elegans, UniProt Q18534, E301D), sequence (Q18534 whole entry E301D): as the sequence (Q18534 whole entry D315A) above, with E301D, A315D counted along it

[9] = test system: NPR-1 mutants; assay: cAMP reporter gene assay; assay type: cell-based, C. elegans; conditions: mutation of T^2.61 and Q^3.32 of NPR-1
[10] = biological target: T1, NPR-11 (Caenorhabditis elegans, UniProt Q18179); assay: cAMP reporter gene assay; assay type: cell-based, C. elegans
T1 sequence (Q18179 1-402): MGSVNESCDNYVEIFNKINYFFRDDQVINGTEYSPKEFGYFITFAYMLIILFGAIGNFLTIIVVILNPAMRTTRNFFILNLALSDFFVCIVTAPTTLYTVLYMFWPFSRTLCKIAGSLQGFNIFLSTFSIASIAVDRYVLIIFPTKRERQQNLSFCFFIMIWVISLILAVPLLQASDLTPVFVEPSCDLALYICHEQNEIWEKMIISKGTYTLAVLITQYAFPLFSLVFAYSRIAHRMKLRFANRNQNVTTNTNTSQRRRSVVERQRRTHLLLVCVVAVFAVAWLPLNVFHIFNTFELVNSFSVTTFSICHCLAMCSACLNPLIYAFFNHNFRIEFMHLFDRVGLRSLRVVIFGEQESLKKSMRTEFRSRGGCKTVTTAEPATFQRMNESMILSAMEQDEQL

[11] = biological target: NPR-11 mutants (Caenorhabditis elegans, UniProt Q18179, E196A); assay: cAMP reporter gene assay; assay type: cell-based, C. elegans
NPR-11 mutants (Caenorhabditis elegans, UniProt Q18179, E196A), sequence (Q18179 whole entry E196A): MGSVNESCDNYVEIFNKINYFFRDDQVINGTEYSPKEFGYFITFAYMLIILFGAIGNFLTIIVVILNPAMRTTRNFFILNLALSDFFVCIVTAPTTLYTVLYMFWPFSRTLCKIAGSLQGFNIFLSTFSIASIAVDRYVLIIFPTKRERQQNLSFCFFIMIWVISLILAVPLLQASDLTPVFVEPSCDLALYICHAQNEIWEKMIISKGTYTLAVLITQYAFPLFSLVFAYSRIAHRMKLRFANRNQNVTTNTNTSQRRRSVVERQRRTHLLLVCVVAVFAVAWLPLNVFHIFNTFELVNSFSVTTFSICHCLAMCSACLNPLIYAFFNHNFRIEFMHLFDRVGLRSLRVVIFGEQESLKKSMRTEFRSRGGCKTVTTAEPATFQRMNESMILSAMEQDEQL

[12] = biological target: NPR-11 mutants (Caenorhabditis elegans, UniProt Q18179, E196D); assay: cAMP reporter gene assay; assay type: cell-based, C. elegans; conditions: NPR-11 E^5.23D
NPR-11 mutants (Caenorhabditis elegans, UniProt Q18179, E196D), sequence (Q18179 whole entry E196D): as the sequence (Q18179 whole entry E196A) above, with A196D counted along it

[13] = biological target: NPR-11 mutants (Caenorhabditis elegans, UniProt Q18179, E196Q); assay: cAMP reporter gene assay; assay type: cell-based, C. elegans
NPR-11 mutants (Caenorhabditis elegans, UniProt Q18179, E196Q), sequence (Q18179 whole entry E196Q): as the sequence (Q18179 whole entry E196A) above, with A196Q counted along it

[14] = biological target: NPR-11 mutants (Caenorhabditis elegans, UniProt Q18179, E199A); assay: cAMP reporter gene assay; assay type: cell-based, C. elegans; conditions: NPR-11 E^5.26A
NPR-11 mutants (Caenorhabditis elegans, UniProt Q18179, E199A), sequence (Q18179 whole entry E199A): as the sequence (Q18179 whole entry E196A) above, with A196E, E199A counted along it

[15] = biological target: NPR-11 mutants (Caenorhabditis elegans, UniProt Q18179, F307A); assay: cAMP reporter gene assay; assay type: cell-based, C. elegans; conditions: NPR-11 F^7.35A
NPR-11 mutants (Caenorhabditis elegans, UniProt Q18179, F307A), sequence (Q18179 whole entry F307A): as the sequence (Q18179 whole entry E196A) above, with A196E, F307A counted along it

[16] = biological target: NPR-11 mutants (Caenorhabditis elegans, UniProt Q18179, Q119A); assay: cAMP reporter gene assay; assay type: cell-based, C. elegans
NPR-11 mutants (Caenorhabditis elegans, UniProt Q18179, Q119A), sequence (Q18179 whole entry Q119A): as the sequence (Q18179 whole entry E196A) above, with Q119A, A196E counted along it

[17] = biological target: NPR-11 mutants (Caenorhabditis elegans, UniProt Q18179, Q119H); assay: cAMP reporter gene assay; assay type: cell-based, C. elegans; conditions: NPR-11 Q^3.32H
NPR-11 mutants (Caenorhabditis elegans, UniProt Q18179, Q119H), sequence (Q18179 whole entry Q119H): as the sequence (Q18179 whole entry E196A) above, with Q119H, A196E counted along it

[18] = biological target: NPR-11 mutants (Caenorhabditis elegans, UniProt Q18179, T96A); assay: cAMP reporter gene assay; assay type: cell-based, C. elegans; conditions: NPR-11 T^2.61A
NPR-11 mutants (Caenorhabditis elegans, UniProt Q18179, T96A), sequence (Q18179 whole entry T96A): as the sequence (Q18179 whole entry E196A) above, with T96A, A196E counted along it

[19] = test system: NPR-11 mutants; assay: cAMP reporter gene assay; assay type: cell-based, C. elegans
[20] = biological target: T2, NPR-1 (Caenorhabditis elegans, UniProt Q18534); conditions: read-out: EC50 at NPR-1; ref [13]; cited from earlier work
T2 sequence (Q18534 1-457): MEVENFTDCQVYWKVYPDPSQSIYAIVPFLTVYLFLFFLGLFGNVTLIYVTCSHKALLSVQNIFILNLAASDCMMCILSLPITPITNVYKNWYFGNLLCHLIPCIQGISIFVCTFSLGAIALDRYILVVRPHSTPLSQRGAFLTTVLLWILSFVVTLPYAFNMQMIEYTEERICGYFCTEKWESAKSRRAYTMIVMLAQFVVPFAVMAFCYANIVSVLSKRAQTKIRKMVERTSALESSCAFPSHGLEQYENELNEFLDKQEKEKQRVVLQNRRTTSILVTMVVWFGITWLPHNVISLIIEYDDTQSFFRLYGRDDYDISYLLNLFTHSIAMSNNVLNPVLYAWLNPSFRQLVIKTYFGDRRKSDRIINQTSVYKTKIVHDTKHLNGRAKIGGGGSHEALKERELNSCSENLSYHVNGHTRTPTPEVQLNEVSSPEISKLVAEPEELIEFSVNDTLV

[21] = biological target: T2, NPR-1; assay: cAMP reporter gene assay; assay type: cell-based, C. elegans; conditions: wild type NPR-1
[22] = biological target: T1, NPR-11; assay: NanoBRET displacement binding assay, Nluc-NPR-11 wild type; design: species or system C. elegans
[23] = biological target: Q^3.32A variant of NPR-11 (Caenorhabditis elegans, UniProt Q18179, Q119A); assay: NanoBRET displacement binding assay, Nluc-NPR-11 Q^3.32A variant; design: species or system C. elegans
Q^3.32A variant of NPR-11, sequence (Q18179 whole entry Q119A): as the sequence (Q18179 whole entry E196A) above, with Q119A, A196E counted along it

NPR-1 mutants (Caenorhabditis elegans, UniProt Q18534, D303A/D304A/E301A), sequence (Q18534 whole entry E301A/D303A/D304A): as the sequence (Q18534 whole entry D315A) above, with E301A, D303A, D304A, A315D counted along it

In the case of GLGPRPLRF-NH2 [FLP-21], the EC50 [1] is reported as over 10000 nM, the “EC50 shift relative to wild type receptor” value [2] is reported as under 5 fold and the “EC50 shift relative to wild type receptor” value [3] is reported as under 5 fold. For the same substance, the EC50 [4] was over 10000 nM, the EC50 [5] was 495 nM and the “EC50 shift relative to wild type receptor” value ([5]; NPR-1 E^5.27D) was over 600 fold. The EC50 [6] was over 10000 nM, the EC50 [7] was 20 nM and the “EC50 shift relative to wild type NPR-1” value ([7]; NPR-1 E^6.59A) was 25 fold. For the same substance, the EC50 [8] was 0.13 nM, the “decrease of receptor activation relative to wild type receptor” value [9] was over 30 fold and the “reduced potency at NPR-11 compared to NPR-1” value ([10]; EC50 NPR-11 versus EC50 NPR-1) was 64 fold. The EC50 [11] was over 10000 nM, the “decreased potency relative to wild type receptor” value [12] was over 70 fold and the EC50 [13] was over 10000 nM. For the same substance, the “receptor activation in words” value [14] was “inactive”, the “receptor activation in words” value [15] was “inactive” and the EC50 [16] was 0.1 nM. The “EC50 as fold of the wild type receptor” value ([16]; NPR-11 Q^3.32A) was 0.002 fold, the “gain of function relative to wild type receptor” value ([16]; NPR-11 Q^3.32A) was over 500 fold and the “receptor activation in words” value [17] was “did not affect activation”. For the same substance, the “EC50 shift relative to wild type receptor” value [18] was 4 fold, the “receptor activation in words” value ([19]; NPR-11 E^5.26 mutated to glutamine or aspartate) was “behaved like wild type” and the “EC50 shift relative to wild type receptor” value ([19]; NPR-11 F^7.35 to histidine or leucine) was over 200 fold. For the same substance, the “receptor activation in words” value ([19]; NPR-11 T^6.59 and N^6.58 alanine mutants) was “wild type-like activities”.

In the case of RGPSGPLRF-NH2 [FLP-15–2], the EC50 [20] is listed as 22 nM.

With “[L^7A]-FLP-21: FLP-21 variant, L^7 to alanine (GLGPRPARF-NH2)” the “EC50 shift (loss of potency) relative to wild type FLP-21” value [21] was 497 fold, the “EC50 shift relative to wild type FLP-21” value ([10]; wild type NPR-11) was 10 fold and the “EC50 shift compared to FLP-21 at the same receptor mutant” value ([16]; NPR-11 Q^3.32A) was 300 fold. For the same substance, the “reduction of Ki relative to FLP-21” value [22] was “less than 10 fold” and the “reduction of Ki compared to FLP-21” value [23] was 100 fold.
